Assay results reported in patent US5663148A, “Anaphylatoxin receptor ligands containing lipophilic residues” (Abbott Laboratories, priority 1994, dated 1997).
*1 amine or outer side, *2 acyl side, *3 side chain or, on linkers, in order; H or OH if unused. Where a SMILES comes first, the peptide text is derived from it. [ ]: non-standard residue; d: D form. The star is where a group is joined. ξ: configuration not given here. Gly(N(CH2)2(3-indolyl)) = O=C(O)CNCCc1c[nH]c2ccccc12; X11 = O=C([C@H](CC1CCCCC1)N(CCCc1ccccc1)[*:1])[*:2]; X13 = O=C([C@H](CC1CCCCC1)N(CCc1ccccc1)[*:1])[*:2]; X5 = O=C([C@H](CC1CCCCC1)N(Cc1ccccc1)[*:1])[*:2]; Pentanoyl(5-Ph) = O=C(CCCCc1ccccc1)*; d(hhPhe) = N[C@H](CCCc1ccccc1)C(=O)O; X2 = O=C(C(CCOc1ccccc1)N[*:1])[*:2]; hhPhe = N[C@@H](CCCc1ccccc1)C(=O)O; Hydrocinnamoyl = O=C(CCc1ccccc1)*; Cha = N[C@@H](CC1CCCCC1)C(=O)O; ξhhPhe = NC(CCCc1ccccc1)C(=O)O; X10 = O=C(Cc1c[nH]c2ccccc12)*; X1 = O=C(CC1CNc2ccccc21)*; PhAc = O=C(Cc1ccccc1)*; Ahp = NCCCCCCC(=O)O; X8 = c1ccc(CCC*)cc1; Ahx = NCCCCCC(=O)O; Bn = c1ccc(C*)cc1

Molecular target: T1, C5a receptor (Homo sapiens, UniProt P21730)
T1 construct: from tissue; host or cells: polymorphonuclear leukocyte (PMNL) membrane fragments
T1 sequence (P21730 1-350): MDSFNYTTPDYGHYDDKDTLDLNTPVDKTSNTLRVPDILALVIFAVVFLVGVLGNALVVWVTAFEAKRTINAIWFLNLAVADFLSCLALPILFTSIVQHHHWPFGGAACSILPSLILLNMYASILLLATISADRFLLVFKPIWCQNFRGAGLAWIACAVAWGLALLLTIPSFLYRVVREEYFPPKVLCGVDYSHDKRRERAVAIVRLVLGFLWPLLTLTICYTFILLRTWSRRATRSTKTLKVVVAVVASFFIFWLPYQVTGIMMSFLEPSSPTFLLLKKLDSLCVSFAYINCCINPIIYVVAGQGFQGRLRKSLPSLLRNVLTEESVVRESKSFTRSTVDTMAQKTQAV
Assay: Anaphylatoxin (C5a) receptor binding Ki determination, 125I-C5a on PMNL membrane fragments
Conditions: read-out: Ki (In vitro C5a Receptor Binding Potency)
Description: The membrane-bound radiolabeled C5a was separated from the free radiolabeled C5a by filtration, and the recovered gamma radioactivity was measured. […] Free and membrane-bound ligand were separated by filtration.

Row | Structure (SMILES) | Ki
1 | CN[C@@H](Cc1ccccc1)C(=O)N[C@@H](CCCCN)C(=O)N1CCC[C@H]1C(=O)N[C@@H](CC1CCCCC1)C(=O)N[C@@H](C)C(=O)N[C@@H](CC(C)C)C(=O)NC(CCCc1ccccc1)C(=O)N[C@@H](CCCNC(=N)N)C(=O)O (single isomer, unassigned) [Example 129] | 17 nM
2 | CC(C)C[C@H](NC(=O)[C@H](C)NC(=O)[C@H](CC1CCCCC1)NC(=O)CCCCCN)C(=O)NC(CCCc1ccccc1)C(=O)N[C@@H](CCCNC(=N)N)C(=O)O (single isomer, unassigned) [Example 135] | 1300 nM
3 | CC(C)C[C@H](NC(=O)CNC(=O)[C@H](CCC1CCCCC1)NC(=O)CCCCCN)C(=O)NC(CCCc1ccccc1)C(=O)N[C@@H](CCCNC(=N)N)C(=O)O (single isomer, unassigned) [Example 137] | 4200 nM
4 | CC(C)C[C@H](NC(=O)CNC(=O)[C@H](CCC1CCCCC1)NC(=O)CCCCCN)C(=O)NC(CCCc1ccccc1)C(=O)N[C@@H](CCCNC(=N)N)C(=O)O (single isomer, unassigned) [Example 138] | 330 nM
5 | CC(C)C[C@H](NC(=O)CNC(=O)[C@H](CC1CCCCC1)NC(=O)CCCCN)C(=O)NC(CCCc1ccccc1)C(=O)N[C@@H](CCCNC(=N)N)C(=O)O (single isomer, unassigned) [Example 139] | 1100 nM
6 | CC(C)C[C@H](NC(=O)CNC(=O)[C@H](CC1CCCCC1)NC(=O)CCCCN)C(=O)NC(CCCc1ccccc1)C(=O)N[C@@H](CCCNC(=N)N)C(=O)O (single isomer, unassigned) [Example 140] | 18600 nM
7 | CC(C)C[C@H](NC(=O)CNC(=O)[C@H](CC1CCCCC1)NC(=O)NCc1cccc(CN)c1)C(=O)NC(CCCc1ccccc1)C(=O)N[C@@H](CCCNC(=N)N)C(=O)O (single isomer, unassigned) [Example 141] | 16000 nM
8 | CC(C)C[C@H](NC(=O)CNC(=O)[C@H](CC1CCCCC1)NC(=O)NCc1cccc(CN)c1)C(=O)NC(CCCc1ccccc1)C(=O)N[C@@H](CCCNC(=N)N)C(=O)O (single isomer, unassigned) [Example 142] | 1300 nM
9 | CC(C)C[C@H](NC(=O)[C@H](C)NC(=O)[C@H](CC1CCCCC1)NC(=O)[C@@H]1CCCN1C(=O)[C@H](CCCCN)NC(=O)[C@@H](N)Cc1ccccc1)C(=O)N[C@H](CCCc1ccccc1)C(=O)N[C@@H](CCCNC(=N)N)C(=O)O [Example 2, H-Phenylalanyl-Lysyl-Prolyl-{(2S)-2-Amino-3-cyclohexylpropanoyl}-Alanyl-Leucyl-{(R)-2-Amino-5-phenylpentanoyl}-Arginyl-OH] (H-FKP[Cha]AL[d(hhPhe)]R-OH) | 4.8 nM
10 | CC(C)C[C@H](NC(=O)[C@H](C)NC(=O)[C@H](CC1CCCCC1)NC(=O)[C@@H]1CCCN1C(=O)[C@H](CCCCN)NC(=O)[C@@H](N)Cc1ccccc1)C(=O)N[C@@H](CCCc1ccccc1)C(=O)N[C@@H](CCCNC(=N)N)C(=O)O [Example 3, H-Phenylalanyl-Lysyl-Prolyl-{(2S)-2-Amino-3-cyclohexylpropanoyl}-Alanyl-Leucyl-{(S)-2-Amino-5-phenylpentanoyl}-Arginyl-OH] (H-FKP[Cha]AL[hhPhe]R-OH) | 13 nM
11 | CC(C)C[C@H](NC(=O)Cc1c[nH]c2ccccc12)C(=O)N[C@@H](CCCc1ccccc1)C(=O)N[C@@H](CCCNC(=N)N)C(=O)O [Example 20, N-{Indole-3-acetyl}-Leucyl-{(S)-2-Amino-5-phenylpentanoyl}-Arginyl-OH] | 6650 nM
12 | CC(C)C[C@H](NC(=O)[C@H](C)NC(=O)[C@H](CC1CCCCC1)NC(=O)[C@@H]1CCCN1C(=O)[C@H](CCCCN)NC(=O)CN)C(=O)N[C@H](CSCCCc1ccccc1)C(=O)N[C@@H](CCCNC(=N)N)C(=O)O [Example 22, H-Glycyl-Lysyl-Prolyl-{(2S)-2-Amino-3-cyclohexylpropanoyl}-Alanyl-Leucyl-DCysteinyl(S-3-phenylpropyl)-Arginyl-OH] (H-GKP[Cha]AL[dC](X8)R-OH) | 4700 nM
13 | CC(C)C[C@H](NC(=O)[C@H](C)NC(=O)[C@H](CC1CCCCC1)NC(=O)[C@@H]1CCCN1C(=O)[C@H](CCCCN)NC(=O)CN)C(=O)N[C@H](CSCc1ccccc1)C(=O)N[C@@H](CCCNC(=N)N)C(=O)O [Example 31, H-Glycyl-Lysyl-Propyl-{(2S)-2-Amino-3-cyclohexylpropanoyl}-Alanyl-Leucyl-DCysteinyl(S-benzyl)-Arginyl-OH] (H-GKP[Cha]AL[dC](Bn)R-OH) | 1100 nM
14 | CC(C)C[C@H](NC(=O)CCc1c[nH]c2ccccc12)C(=O)N[C@H](CCCc1ccccc1)C(=O)N[C@@H](CCCNC(=N)N)C(=O)O [Example 38, N=(Indole-3-propionyl)-Leucyl-{(R)-2-Amino-5-phenylpentanoyl}-Arginyl-OH] | 8400 nM
15 | CC(C)C[C@H](NC(=O)CNC(=O)[C@H](CC1CCCCC1)NC(=O)Cc1ccccc1)C(=O)N[C@H](CCCc1ccccc1)C(=O)N[C@@H](CCCNC(=N)N)C(=O)O [Example 47, N-Phenylacetyl-{(2S)-2-Amino-3-cyclohexylpropanoyl}-Glycyl-Leucyl-{(R)-2-Amino-5-phenylpentanoyl}-Arginyl-OH] (PhAc-[Cha]GL[d(hhPhe)]R-OH) | 1100 nM
16 | CC(C)C[C@H](NC(=O)CNC(=O)[C@H](CC1CCCCC1)NC(=O)CCCCCCN)C(=O)NC(CCOc1ccccc1)C(=O)N[C@@H](CCCNC(=N)N)C(=O)O (some centres unmarked) [Example 48] (H-[Ahp][Cha]GL[X2]R-OH) | 230 nM
17 | CC(C)C[C@H](NC(=O)CNC(=O)[C@H](CC1CCCCC1)NC(=O)CCc1ccccc1)C(=O)N[C@H](CCCc1ccccc1)C(=O)N[C@@H](CCCNC(=N)N)C(=O)O [Example 49, N-(3-Phenylpropanoyl)-{(2S)-2-Amino-3-cyclohexylpropanoyl}-Glycyl-Leucyl-{(R)-2-Amino-5-phenylpentanoyl}-Arginyl-OH] (Hydrocinnamoyl-[Cha]GL[d(hhPhe)]R-OH) | 720 nM
18 | CC(C)C[C@H](NC(=O)CNC(=O)Cc1c[nH]c2ccccc12)C(=O)N[C@H](CCCc1ccccc1)C(=O)N[C@@H](CCCNC(=N)N)C(=O)O [Example 50, N-(Indole-3-acetyl)-Glycyl-Leucyl-{(R)-2-Amino-5-phenylpentanoyl}-Arginyl-O] (X10-GL[d(hhPhe)]R-OH) | 190 nM
19 | CC(C)C[C@H](NC(=O)CNC(=O)[C@H](CC1CCCCC1)NC(=O)CCCCc1ccccc1)C(=O)N[C@H](CCCc1ccccc1)C(=O)N[C@@H](CCCNC(=N)N)C(=O)O [Example 62, N-(5-Phenylvaleryl)-{(2S)-2-Amino-3-cyclohexylpropanoyl}-Glycyl-Leucyl-{(R)-2-Amino-5-phenylpentanoyl}-Arginyl-OH] ({Pentanoyl(5-Ph)}-[Cha]GL[d(hhPhe)]R-OH) | 1070 nM
20 | CC(C)C[C@H](NC(=O)CNC(=O)[C@H](CC1CCCCC1)NCc1ccccc1)C(=O)N[C@H](CCCc1ccccc1)C(=O)N[C@@H](CCCNC(=N)N)C(=O)O [Example 63, H-{(2S)-2-Amino-3-cyclohexylpropanoyl}(N-Benzyl)-Glycyl-Leucyl-{(R)-2-Amino-5-phenylpentanoyl}-Arginyl-OH] (H-[X5]GL[d(hhPhe)]R-OH) | 400 nM
21 | CC(C)C[C@H](NC(=O)CNC(=O)[C@H](CC1CCCCC1)N(Cc1ccccc1)C(=O)CCCCCCN)C(=O)N[C@H](CCCc1ccccc1)C(=O)N[C@@H](CCCNC(=N)N)C(=O)O [Example 64, N-(7-Aminoheptanoyl)-{(2S)-2-Amino-3-cyclohexylpropanoyl}(N-Benzyl)-Glycyl-Leucyl-{(R)-2-Amino-5-phenylpentanoyl}-Arginyl-OH] (H-[Ahp][X5]GL[d(hhPhe)]R-OH) | 470 nM
22 | C[C@H](NC(=O)CNC(=O)[C@H](CC1CCCCC1)NC(=O)CCCCCN)C(=O)NC(CCCc1ccccc1)C(=O)N[C@@H](CCCNC(=N)N)C(=O)O (stereo partly drawn) [Example 74, N-(6-Aminohexanoyl)-{(2S)-2-Amino-3-cyclohexylpropanoyl}-Glycyl-Alanyl-{(+)-2-Amino-5-phenylpentanoyl}-Arginyl-OH] (H-[Ahx][Cha]GA[ξhhPhe]R-OH) | 91900 nM
23 | CC(C)C[C@H](NC(=O)CNC(=O)[C@H](CC1CCCCC1)NCCCc1ccccc1)C(=O)N[C@H](CCCc1ccccc1)C(=O)N[C@@H](CCCNC(=N)N)C(=O)O [Example 77, N-(3-Phenylpropyl)-{(2S)-2-Amino-3-cyclohexylpropanoyl}-Glycyl-Leucyl-{(R)-2-Amino-5-phenylpentanoyl}-Arginyl-OH] (H-[X11]GL[d(hhPhe)]R-OH) | 50 nM
24 | CC(C)C[C@H](NC(=O)CNC(=O)[C@H](CC1CCCCC1)NCCc1ccccc1)C(=O)N[C@H](CCCc1ccccc1)C(=O)N[C@@H](CCCNC(=N)N)C(=O)O [Example 78, N-(2-Phenethyl)-{(2S)-2-Amino-3-cyclohexylpropanoyl}-Glycyl-Leucyl-{(R)-2-Amino-5-phenylpentanoyl}-Arginyl-OH] (H-[X13]GL[d(hhPhe)]R-OH) | 70 nM
25 | CC(C)C[C@H](NC(=O)CNCCc1c[nH]c2ccccc12)C(=O)N[C@H](CCCc1ccccc1)C(=O)N[C@@H](CCCNC(=N)N)C(=O)O [Example 79, N-[(Indol-3-yl)ethyl]-Glycyl-Leucyl-{(R)-2-Amino-5-phenylpentanoyl}-Arginyl-OH] (H-[Gly(N(CH2)2(3-indolyl))]L[d(hhPhe)]R-OH) | 390 nM
26 | CC(C)C[C@H](NC(=O)CNC(=O)CC1CNc2ccccc21)C(=O)N[C@H](CCCc1ccccc1)C(=O)N[C@@H](CCCNC(=N)N)C(=O)O (stereo partly drawn) [Example 80, N-[(Indoline-3-yl)acetyl]-Glycyl-Leucyl-{(R)-2-Amino-5-phenylpentanoyl}-Arginyl-OH] (X1-GL[d(hhPhe)]R-OH) | 870 nM
